This is an account of results in ChEMBL document CHEMBL5241092, “The antibacterial activity of fluoroquinolone derivatives: An update (2018-2021)” (2021).

Common to all, as to format: functional
In assay [1] the test system is Escherichia coli. The experiment in a line: Antibacterial activity against Escherichia coli.
In assay [2] the test system is Pseudomonas aeruginosa. The experiment in a line: Antibacterial activity against Pseudomonas aeruginosa.
The subject of assay [3] is Staphylococcus aureus. The experiment in a line: Antibacterial activity against Staphylococcus aureus.
Assay [4] relates to Staphylococcus epidermidis. The experiment in a line: Antibacterial activity against Staphylococcus epidermidis.
Assay [5] has as its system Bacillus subtilis. The experiment in a line: Antibacterial activity against Bacillus subtilis.
In assay [6] the test system is Yersinia pseudotuberculosis. The experiment in a line: Antibacterial activity against Yersinia pseudotuberculosis.
Assay [7] has as its system Klebsiella pneumoniae. The experiment in a line: Antibacterial activity against Klebsiella pneumoniae.
For assay [8], the system named is Enterococcus faecalis. The experiment in a line: Antibacterial activity against Enterococcus faecalis.
The test system of assay [9] is Listeria monocytogenes. The experiment in a line: Antibacterial activity against Listeria monocytogenes.
For assay [10], the system named is Lactobacillus acidophilus. The experiment in a line: Antibacterial activity against Lactobacillus acidophilus.
In assay [11] the test system is Bacillus cereus. The experiment in a line: Antibacterial activity against Bacillus cereus.
Assay [12] has as its system Staphylococcus aureus. The experiment in a line: Antibacterial activity against methicillin resistant Staphylococcus aureus.

Converted amounts (≈) assume the structure as drawn.

For orientation: MIC90 means the lowest concentration that inhibits either 90% of growth or 90% of the strains tested, depending on the study. Low values mean higher susceptibility, high ones lower susceptibility. As for `CC[C@H](C)[C@H](NC(=O)[C@H](CCCCN)NC(=O)[C@H](CCCCN)NC(=O)[C@H](C)NC(=O)[C@H](CC(C)C)NC(=O)[C@H](C)NC(=O)[C@H](C)NC(=O)[C@H](CC(C)C)NC(=O)[C@H](C)NC(=O)[C@H](CCCCN)NC(=O)[C@H](CC(C)C)NC(=O)[C@H](CC(N)=O)NC(=O)[C@@H](NC(=O)[C@H](CCCCN)NC(=O)CNC(=O)[C@H](CC(C)C)NC(=O)[C@H](CC(C)C)NC(=O)[C@H](Cc1ccc(O)cc1)NC(=O)CNC(=O)[C@H](C)NC(=O)CCSSCCC(=O)N1CCN(c2cc3c(cc2F)c(=O)c(C(=O)O)cn3C2CC2)CC1)[C@@H](C)CC)C(=O)N[C@@H](CC(C)C)C(N)=O`, the MIC90 in assay [1], in assay [2], in [3] and in assay [4] was 0.025 µg/mL (≈ 0.0093 µM) each time.

As a reminder, the MIC is the lowest concentration found to suppress growth. Low readings indicate inhibition by little substance, high ones a need for much substance. Consider `O=C(O)c1cn(C2CC2)c2cc(N3CCN(Cn4nc(-c5cccnc5)oc4=S)CC3)c(F)cc2c1=O`, for which the minimum inhibitory concentration (MIC) in assay [1], in assay [2], in [3] and in [5] was 0.031 µg/mL (≈ 0.0593 µM) throughout.

On to `COc1c(N2C[C@H]3CCCN(C(=O)c4ccc(C)cc4)[C@H]3C2)c(F)cc2c(=O)c(C(=O)O)cn(C3CC3)c12`, for which the MIC is less than 1.23 µg/mL in assay [1]; less than 1.23 µg/mL in assay [6]; less than 1.23 µg/mL in assay [7]; less than 1.23 µg/mL in assay [2]; no more than 1.23 µg/mL in assay [3]; no more than 1.23 µg/mL in [8]. In addition, the values for the MIC in assay [9], in assay [10] and in assay [11] were no more than 1.23 µg/mL, less than 1.23 µg/mL and no more than 1.23 µg/mL, respectively.

In the case of `CC(=O)C(C(C)=O)C(=O)c1cn(C2CC2)c2cc(N3CCN(/N=N/c4nc(C)cc(C)n4)CC3)c(F)cc2c1=O`, the MIC in assay [3], in [4] and in assay [5] was 0.015 µg/mL (≈ 0.0274 µM) each time.

Consider `COc1c(N2C[C@H]3CCCN(C(=O)c4ccccc4)[C@H]3C2)c(F)cc2c(=O)c(C(=O)O)cn(C3CC3)c12`, for which the MIC in assay [1], in assay [6], in assay [7], in [2], in [3] and in assay [8] was less than 1.23 µg/mL each time. The MIC in assay [9], in assay [10] and in [11] was less than 1.23 µg/mL throughout.

For the compound `CCOc1cc(OCC)nc(/N=N/N2CCN(c3cc4c(cc3F)c(=O)c(C(=O)C(C(=O)OC)C(=O)OC)cn4C3CC3)CC2)n1`, the MIC in assay [3], in assay [4] and in [5] was 0.015 µg/mL (≈ 0.0235 µM) in each case.

Regarding `CCn1c(S)nnc1CN1CCN(c2cc3c(cc2F)c(=O)c(C(=O)O)cn3CC)CC1`, the MIC in assay [1], in [6], in [2], in assay [3], in [8] and in [11] was less than 0.24 µg/mL in each case.

`COc1c(N2C[C@H]3CCCN(C(=O)c4ccc([N+](=O)[O-])cc4)[C@H]3C2)c(F)cc2c(=O)c(C(=O)O)cn(C3CC3)c12`: the minimum inhibitory concentration (MIC) was less than 1.23 µg/mL in [1]; less than 1.23 µg/mL in [6]; less than 1.23 µg/mL in [7]; less than 1.23 µg/mL in assay [2]; no more than 1.23 µg/mL in [3]; no more than 1.23 µg/mL in assay [8]. In addition, the results for the MIC in assay [9], in assay [10] and in assay [11] were no more than 1.23 µg/mL, less than 1.23 µg/mL and no more than 1.23 µg/mL, respectively.

As to `COc1c(N2C[C@H]3CCCN(C(=O)c4ccc(Br)cc4)[C@H]3C2)c(F)cc2c(=O)c(C(=O)O)cn(C3CC3)c12`, the MIC in assay [1] was less than 1.23 µg/mL; in [6] it was less than 1.23 µg/mL; in [7] it was less than 1.23 µg/mL; in assay [2], less than 1.23 µg/mL; in assay [3] it was no more than 1.23 µg/mL; in [8] it was no more than 1.23 µg/mL. In addition, the MIC in assay [9] was no more than 1.23 µg/mL; in [10], less than 1.23 µg/mL; in assay [11], no more than 1.23 µg/mL.

Regarding `COc1c(N2C[C@H]3CCCN(C(=O)c4ccc(Cl)cc4)[C@H]3C2)c(F)cc2c(=O)c(C(=O)O)cn(C3CC3)c12`, the MIC in assay [1] was less than 1.23 µg/mL; in assay [6], less than 1.23 µg/mL; in assay [7] it was less than 1.23 µg/mL; in [2] it was less than 1.23 µg/mL; in assay [3], no more than 1.23 µg/mL; in assay [8] it was no more than 1.23 µg/mL. For the same compound, the results for the MIC in assay [9], in assay [10] and in assay [11] were no more than 1.23 µg/mL, less than 1.23 µg/mL and no more than 1.23 µg/mL, respectively.

On to `COc1c(N2CCN(/N=N/c3nc(C)cc(C)n3)CC2)c(F)cc2c(=O)c(C(=O)C(C(C)=O)C(C)=O)cn(C3CC3)c12`, for which the minimal inhibitory concentration (MIC) in [3], in [4] and in assay [5] was 0.015 µg/mL (≈ 0.026 µM) each time.

Take `COc1ccc(C(=O)N2CCC[C@@H]3CN(c4c(F)cc5c(=O)c(C(=O)O)cn(C6CC6)c5c4OC)C[C@@H]32)cc1`: the MIC in assay [1] is less than 1.23 µg/mL; in assay [6], less than 1.23 µg/mL; in assay [7], less than 1.23 µg/mL; in assay [2], less than 1.23 µg/mL; in assay [3], no more than 1.23 µg/mL; in [8], no more than 1.23 µg/mL. The MIC in [9] was no more than 1.23 µg/mL; in [10], less than 1.23 µg/mL; in assay [11], no more than 1.23 µg/mL.

For `O=C(O)c1cn(C2CC2)c2cc(N3CCN(Cc4nc5cc(Cl)ccc5c(=O)[nH]4)CC3)c(F)cc2c1=O`, the MIC in [3] and in assay [12] was 0.016 µg/mL (≈ 0.0305 µM) throughout.

`COc1ccc2nc(CN3CCN(c4cc5c(cc4F)c(=O)c(C(=O)O)cn5-c4ccc(F)cc4)CC3)[nH]c(=O)c2c1`: the MIC in [3] and in assay [12] was 0.125 µg/mL (≈ 0.218 µM) in each case.

As for `O=C(O)c1cn(-c2ccc(F)cc2)c2cc(N3CCN(Cc4nc5ccccc5c(=O)[nH]4)CC3)c(F)cc2c1=O`, the MIC in assay [3] and in assay [12] was 0.125 µg/mL (≈ 0.23 µM) in each case.

Turning to `COc1c(N2C[C@H]3CCCN(C(=O)c4ccc(F)cc4)[C@H]3C2)c(F)cc2c(=O)c(C(=O)O)cn(C3CC3)c12`, the MIC in assay [1] is less than 1.23 µg/mL; in assay [6], less than 1.23 µg/mL; in assay [7], less than 1.23 µg/mL; in assay [2], less than 1.23 µg/mL; in [3], no more than 1.23 µg/mL; in assay [8], no more than 1.23 µg/mL. Also, the minimum inhibitory concentration (MIC) in assay [9] is no more than 1.23 µg/mL; in [10], less than 1.23 µg/mL; in [11] it was no more than 1.23 µg/mL.

In the case of `O=C(O)c1cn(-c2ccc(F)cc2)c2cc(N3CCN(C/C(=N/O)c4ccccc4)CC3)c(F)cc2c1=O`, the MIC in [3], in assay [4] and in assay [5] was less than 0.125 µg/mL each time.

On to `COc1ccc2nc(CN3CCN(c4cc5c(cc4F)c(=O)c(C(=O)O)cn5C4CC4)CC3)[nH]c(=O)c2c1`, for which the MIC in assay [3] and in assay [12] was 0.016 µg/mL (≈ 0.0308 µM) in each case.

Turning to `CCOc1cc(OCC)nc(/N=N/N2CCN(c3c(F)cc4c(=O)c(C(=O)C(C(C)=O)C(=O)OC)cn(C5CC5)c4c3OC)CC2)n1` (configuration not stated), the minimal inhibitory concentration (MIC) in assay [3], in [4] and in assay [5] was 0.015 µg/mL (≈ 0.0229 µM) in each case.

For `O=C(O)c1cn(C2CC2)c2cc(N3CCN(Cn4nc(-c5ccccn5)oc4=S)CC3)c(F)cc2c1=O`, the MIC in [1], in assay [2], in assay [3] and in [5] was 0.031 µg/mL (≈ 0.0593 µM) each time.

On to `O=C(O)c1cn(C2CC2)c2cc(N3CCN(Cc4nc5ccc(Cl)cc5c(=O)[nH]4)CC3)c(F)cc2c1=O`, for which the MIC in assay [3] and in [12] was 0.016 µg/mL (≈ 0.0305 µM) throughout.

Turning to `COc1c(N2C[C@@H]3CCCN[C@@H]3C2)c(F)cc2c(=O)c(C(=O)O)cn(C3CC3)c12` [MOXIFLOXACIN], the MIC in [8], in [9] and in assay [11] was less than 0.6 µg/mL in each case.

As to `O=C(O)c1cn(-c2ccc(F)cc2)c2cc(N3CCNCC3)c(F)cc2c1=O` [SARAFLOXACIN], the MIC in assay [3], in [4] and in assay [5] was less than 0.125 µg/mL throughout.
